Like-named read-outs stand apart in the source and are kept apart here.
Columns and labels:
[1] = target: T1, α-amylase (Hi media RM 638) enzyme (Aspergillus oryzae, UniProt P0C1B3); assay: biochemical
T1 construct: purchased Hi media RM 638
Procedure: The anti-diabetic activity of all the prepared derivatives (6a–i) and (7a–i) was evaluated following the method reported in refs. [31, 32]. In brief, to check the anti-diabetic activity of each compound, […] different concentrations, ranging from 250 to 50 μg, with a difference of 50 μg, were used and each concentration was treated with 200 μL of α-amylase (Hi media RM 638) enzyme to determine the anti-diabetic activity in triplicate at each concentration. Here, 0.6 mL of each sample at each concentration was mixed with 0.6 mL of buffered solution (0.03 M sodium phosphate buffer), which was subsequently incubated for 16 min at 37 °C. Afterwards, 1 mL of starch solution was added to the above solutions. In the next step, 1 mL of color-imparting reagent, […] (DNSA), was poured into each solution and the solution was left for 6 min in boiling water. Finally, the solutions were made up to 20 mL with distilled water. […] The absorbance value taken at 670 nm was used to check the performance of the newly obtained derivatives. The following Equation (1) was used to determine the percentage inhibition of each drug at the different concentrations. (1) %A=Acontrol−Asample/Acontrol×100 where %A, Acontrol and Asample are the percentage inhibition, absorbance blank and absorbance of sample, respectively.
The concentration of pyrazolo[3,4-b]pyridine derivative needed to inhibit the α-amylase activity by 50% is known as the IC50 value and is calculated from the plot of the percent inhibition against the log inhibitor concentration (i.e., synthesized drugs). A non-linear regression analysis on Graph Pad Prism 8.0.2. was performed on the plots to extract the IC50 value for each compound.

[2] = Table 2, in vitro anti-diabetic, ester derivatives, read-out: IC50 Value
[3] = Table 3, anti-diabetic, hydrazide derivatives, read-out: IC50 Value
[4] = Figure 6, read-out: IC50 (α-amylase inhibition)

| Molecule | IC50 [1, 2] | melting point | IC50 [1, 3] | IC50 [1, 4] |
| --- | --- | --- | --- | --- |
| CCOC(=O)c1cc(-c2ccc(Br)s2)c2c(C)nn(-c3ccccc3)c2n1 [Compound 4, Ethyl 4-(5-Bromothiophen-2-yl)-3-methyl-1-phenyl-1H-pyrazolo[3,4-b]pyridine-6-carboxylate] | 7.26 µM | 203 to 205 °C | – | – |
| CCOC(=O)c1cc(-c2ccc(-c3ccccc3)s2)c2c(C)nn(-c3ccccc3)c2n1 [Compound 6b, Ethyl 3-Methyl-1-phenyl-4-(5-phenylthiophen-2-yl)-1H-pyrazolo[3,4-b]pyridine-6-carboxylate] | 5.14 µM | – | – | – |
| CCOC(=O)c1cc(-c2ccc(-c3cc(OC)cc(OC)c3)s2)c2c(C)nn(-c3ccccc3)c2n1 [Compound 6d, Ethyl 4-(5-(3,5-Dimethoxyphenyl)thiophene-2-yl)-3-methyl-1-phenyl-1H-pyrazolo[3,4-b]pyridine-6-carboxylate] | 7.06 µM | 147.5 °C | – | – |
| Ethyl 4-(5-(3,5-Dimethylphenyl)thiophen-2-yl)-3-methyl-1-phenyl-1H-pyrazolo[3,4-b]pyridine-6-carboxylate [Compound 6e] | 9.01 µM | – | – | – |
| CCOC(=O)c1cc(-c2ccc(-c3cccs3)s2)c2c(C)nn(-c3ccccc3)c2n1 [Compound 6a, Ethyl 4-([2,2′-Bithiophen]-5-yl)-3-methyl-1-phenyl-1H-pyrazolo[3,4-b]pyridine-6-carboxylate] | 8.38 µM | 154 to 157 °C | – | – |
| CCOC(=O)c1cc(-c2ccc(-c3cccc(C(C)(C)C)c3)s2)c2c(C)nn(-c3ccccc3)c2n1 [Compound 6f, Ethyl 4-(5-(3-(Tert-butyl)phenyl)thiophen-2-yl)-3-methyl-1-phenyl-1H-pyrazolo[3,4-b]pyridine-6-carboxylate] | 58.6 µM | – | – | 58.7 µM |
| CCOC(=O)c1cc(-c2ccc(-c3cccc(F)c3F)s2)c2c(C)nn(-c3ccccc3)c2n1 [Compound 6g, Ethyl 4-(5-(2,3-Difluorophenyl)thiophen-2-yl)-3-methyl-1-phenyl-1H-pyrazolo[3,4-b]pyridine-6-carboxylate] | 5.56 µM | 170.3 °C | – | 5.2 µM |
| CCOC(=O)c1cc(-c2ccc(-c3cccc4c3OCO4)s2)c2c(C)nn(-c3ccccc3)c2n1 [Compound 6c, Ethyl 4-(5-(Benzo[d][1,3]dioxol-4-yl)thiophen-2-yl)-3-methyl-1-phenyl-1H-pyrazolo[3,4-b]pyridine-6-carboxylate] | 5.15 µM | 127 °C | – | – |
| Cc1nn(-c2ccccc2)c2nc(C(=O)NN)cc(-c3ccc(Br)s3)c12 [Compound 5, 4-(5-Bromothiophen-2-yl)-3-methyl-1-phenyl-1H-pyrazolo[3,4-b]pyridine-6-carbohydrazide] | – | 265 °C | 7.91 µM | – |

The remaining lines, values ahead:

| IC50 [1, 2] | melting point | IC50 [1, 3] | IC50 [1, 4] | Molecule |
| --- | --- | --- | --- | --- |
| – | 270 °C | 8.45 µM | – | Cc1nn(-c2ccccc2)c2nc(C(=O)NN)cc(-c3ccc(-c4ccc(Cl)s4)s3)c12 [Compound 7i, 4-(5′-Chloro-[2,2′-bithiophen]-5-yl)-3-methyl-1-phenyl-1H-pyrazolo[3,4-b]pyridine-6-carbohydrazide] |
| – | 275 °C | 5.15 µM | 5.16 µM | Cc1nn(-c2ccccc2)c2nc(C(=O)NN)cc(-c3ccc(-c4cccc(F)c4F)s3)c12 [Compound 7g, 4-(5-(2,3-Fluorophenyl)thiophen-2-yl)-3-methyl-1-phenyl-1H-pyrazolo[3,4-b]pyridine-6-carbohydrazide] |
| – | – | 5.19 µM | 6.19 µM | Cc1nn(-c2ccccc2)c2nc(C(=O)NN)cc(-c3ccc(-c4cccc(C(F)(F)F)c4)s3)c12 [Compound 7h, 3-Methyl-1-phenyl-4-(5-(3-(trifluoromethyl)phenyl)thiophen-2-yl)-1H-pyrazolo[3,4-b]pyridine-6-carbohydrazide] |
| – | 249 °C | 5.12 µM | – | COc1cc(OC)cc(-c2ccc(-c3cc(C(=O)NN)nc4c3c(C)nn4-c3ccccc3)s2)c1 [Compound 7d, 4-(5-(3,5-Dimethoxyphenyl)thiophen-2-yl)-3-methyl-1-phenyl-1H-pyrazolo[3,4-b]pyridine-6-carbohydrazide] |
| 5.2 µM | 149.5 °C | – | 5.56 µM | CCOC(=O)c1cc(-c2ccc(-c3cccc(C(F)(F)F)c3)s2)c2c(C)nn(-c3ccccc3)c2n1 [Compound 6h, Ethyl 3-Methyl-1-phenyl-4-(5-(3-(trifluoromethyl)phenyl)thiophene-2-yl)-1H-pyrazolo[3,4-b]pyridine-6-carboxylate] |
| – | 255 °C | 5.21 µM | – | Cc1nn(-c2ccccc2)c2nc(C(=O)NN)cc(-c3ccc(-c4cccs4)s3)c12 [Compound 7a, 4-([2,2′-Bithiophen]-5-yl)-3-methyl-1-phenyl-1H-pyrazolo[3,4-b]pyridine-6-carbohydrazide] |
| – | – | 8.94 µM | – | Cc1ccc(-c2ccc(-c3cc(C(=O)NN)nc4c3c(C)nn4-c3ccccc3)s2)c(C)c1 [Compound 7e, 4-(5-(2,4-Dimethylphenyl)thiophen-2-yl)-3-methyl-1-phenyl-1H-pyrazolo[3,4-b]pyridine-6-carbohydrazide] |
| – | 276 °C | 5.17 µM | – | Cc1nn(-c2ccccc2)c2nc(C(=O)NN)cc(-c3ccc(-c4cccc5c4OCO5)s3)c12 [Compound 7c, 4-(5-(Benzo[d][1,3]dioxol-4-yl)thiophen-2-yl)-3-methyl-1-phenyl-1H-pyrazolo[3,4-b]pyridine-6-carbohydrazide] |
| 7.4 µM | 165 °C | – | – | CCOC(=O)c1cc(-c2ccc(-c3ccc(Cl)s3)s2)c2c(C)nn(-c3ccccc3)c2n1 [Compound 6i, Ethyl 4-(5′-Chloro-[2,2′-bithiophen]-5-yl)-3-methyl-1-phenyl-1H-pyrazolo[3,4-b]pyridine-6-carboxylate] |
| – | – | 5.18 µM | – | Cc1nn(-c2ccccc2)c2nc(C(=O)NN)cc(-c3ccc(-c4ccccc4)s3)c12 [Compound 7b, 3-Methyl-1-phenyl-4-(5-phenylthiophen-2-yl)-1H-pyrazolo[3,4-b]pyridine-6-carbohydrazide] |
| – | – | 5.1 µM | – | Cc1nn(-c2ccccc2)c2nc(C(=O)NN)cc(-c3ccc(-c4cccc(C(C)(C)C)c4)s3)c12 [Compound 7f, 4-(5-(3-(Tert-butyl)phenyl)thiophen-2-yl)-3-methyl-1-phenyl-1H-pyrazolo[3,4-b]pyridine-6-carbohydrazide] |
